# From patent publication US8507544B2, “Bi-aryl amide compounds as CRTh2 receptor modulators” (Astrazeneca AB, priority 2007, dated 2013)
# Counter-ions that a name gives are not always drawn.
# Experiments:
# rhCRTh2 = molecular target: T1, rhCRTh2 (Homo sapiens, UniProt Q9Y5Y4); test: Ligand binding assay ([3H]PGD2, SPA, HEK cell membranes); conditions: [3H]PGD2 binding to HEK cell membranes containing CRTh2, RT 2 hours
# T1 construct: expressed in transfected cells; host or cells: HEK cells (membrane preparation)
# T1 sequence (Q9Y5Y4 1-395): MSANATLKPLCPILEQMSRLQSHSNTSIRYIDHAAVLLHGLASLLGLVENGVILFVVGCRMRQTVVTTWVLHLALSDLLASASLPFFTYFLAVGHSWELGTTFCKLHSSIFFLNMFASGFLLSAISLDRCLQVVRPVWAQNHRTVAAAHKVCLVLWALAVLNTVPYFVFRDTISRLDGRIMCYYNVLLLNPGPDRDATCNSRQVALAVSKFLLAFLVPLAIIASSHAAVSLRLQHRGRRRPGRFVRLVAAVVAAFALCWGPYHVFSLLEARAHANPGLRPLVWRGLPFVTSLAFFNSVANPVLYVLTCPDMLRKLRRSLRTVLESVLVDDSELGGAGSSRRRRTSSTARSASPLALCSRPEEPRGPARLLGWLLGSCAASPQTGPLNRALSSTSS
# Method: HEK cells expressing rhCRTh2/Gα16 were routinely maintained in DMEM containing 10% Foetal Bovine Serum (HyClone), 1 mg/ml geneticin, 2 mM L-glutamine and 1% non-essential amino acids. For the preparation of membranes, the adherent transfected HEKcells were grown to confluence in two layer tissue culture factories (Fisher, catalogue number TKT-170-[MUT]). Maximal levels of receptor expression were induced by addition of 500 mM sodium butyrate for the last 18 hours of culture. The adherent cells were washed once with phosphate buffered saline (PBS, 50 ml per cell factory) and detached by the addition of 50 ml per cell factory of ice-cold membrane homogenisation buffer [20 mM HEPES (pH 7.4), 01. mM dithiothreitol, 1 mM EDTA, 0.1 mM phenyl methyl sulphonyl fluoride and 100 μg/ml bacitracin]. […] The final pellet was re-suspended in 4 ml of membrane homogenisation buffer per cell factory used and the protein content determined. […] (The optimum coating concentrations were determined for each batch of membranes) The beads were pelleted by centrifugation (800×g for 7 minutes at 4° C.), washed once with assay buffer (50 mM HEPES pH 7.4 containing 5 mM magnesium chloride) and finally re-suspended in assay buffer at a bead concentration of 10 mg/ml. […] The assay plate was incubated at RT for 2 hours and counted on a Wallac Microbeta liquid scintillation counter (1 minute per well).
# human hepatocytes = test: Determination of metabolic intrinsic clearance (CLint) using human hepatocytes; type: in vitro ADME; conditions: 1 μM substrate, 37° C., n=3
# Method: Compound stocks were prepared in dimethyl sulfoxide at 100-fold incubation concentration (100 μM). 10 μl of this 100 μM stock was added to a vial containing 490 μl of hepatocyte suspension buffer (without serum). A vial containing either human hepatocytes at a concentration of 2 million viable cells/ml was pre-incubated for 5 min in a shaking (80 oscillations/min) water bath at 37° C. along with the vial containing the drug/buffer mix.
# Reactions were initiated by adding 500 μl of hepatocyte suspension to the 500 μl of drug/buffer mix (giving a final substrate concentration of 1 μM at 1% v/v dimethyl sulfoxide). Aliquots (40 μl) were removed at 5, 15, 30, 45, 60, 75 90 & 120 min and reactions were quenched in 80 μl of ice-cold methanol. Samples were subsequently frozen for 1 h at −20° C. and then centrifuged at 2000 g for 20 min at 4° C. The supernatants were removed and analysed by MS/MS and Clint was estimated from the slope of a natural Log of MS/MS response versus time plot. Using physiological scaling factors to account for hepatocellularity and liver weight in the human (Ito and Houston, 2004) hepatic blood clearance was predicted (Clh) using the method outlined by Riley et al., 2005. Typical acid drugs showing an intrinsic clearance value in this assay of <2 μl/min/e^6 cells show robust half lives in man consistent with a once-daily dose intervals. […]
# [1] = Water uptake by GVS (gravimetric vapour sorption); type: physicochemical; conditions: between RH of 0% -80%, as measured by GVS
# Method: • XRPD data were collected using either a PANalytical CubiX PRO machine or a Philips X-Pert MPD machine. • XRPD—PANalytical CubiX PRO • Data was collected with a PANalytical CubiX PRO machine in θ-θ configuration over the scan range 2° to 40° 2θ with 100-second exposure per 0.02° increment. The X-rays were generated by a copper long-fine focus tube operated at 45 kV and 40 mA. The wavelength of the copper X-rays was 1.5418 Å. The data was collected on zero background holders on which ˜2 mg of the compound was placed. The holder was made from a single crystal of silicon, which had been cut along a non-diffracting plane and then polished on an optically flat finish. […] The X-rays incident upon this surface were negated by Bragg extinction. • DSC thermograms were measured using a TA Q1000 Differential Scanning Calorimeter, with aluminium pans and pierced lids. […] The procedure was carried out under a flow of nitrogen gas (50 ml/min) and the temperature studied from 25 to 300° C. at a constant rate of temperature increase of 10° C. per minute. • GVS profiles were measured using a Dynamic Vapour Sorption DVS-1 instrument. The solid sample ca. 1-5 mg was placed into a glass vessel and the weight of the sample was recorded during a dual cycle step method (40 to 90 to 0 to 90 to 0% relative humidity (RH), in steps of 10% RH).
smiles,measurement,setting,value
"C[C@H](Oc1ccc(F)cc1-c1ccc(C(=O)N2CCCC2(C)C)c(Cl)c1)C(=O)O [Example 1, (2S)-2-({3′-chloro-4′-[(2,2-dimethylpyrrolidin-1-yl)carbonyl]-5-fluorobiphenyl-2-yl}oxy)propanoic acid]",pIC50,rhCRTh2,8.4
same,Clint,human hepatocytes,< 1 μl/min/e^6
"C[C@H](Oc1ccc(F)cc1-c1ccc(C(=O)N2CCCC2(C)C)c(Cl)c1)C(=O)O [Example 2, (2S)-2-({3′-chloro-4′-[(2,2-dimethylpyrrolidin-1-yl)carbonyl]-5-fluorobiphenyl-2-yl}oxy)propanoic acid 2-methylpropan-2-amine salt]",water uptake,[1]; listed as example 2 polymorph A,0.6%
"C[C@H](Oc1ccc(F)cc1-c1ccc(C(=O)N2CCCC2(C)C)c(Cl)c1)C(=O)O [Example 4, (2S)-2-({3′-chloro-4′-[(2,2-dimethylpyrrolidin-1-yl)carbonyl]-5-fluorobiphenyl-2-yl}oxy)propanoic acid crystaline free acid]",water uptake,[1]; listed as example 4 polymorph A,0.7%
